Values after ≈ are worked out from the molar mass of the structure shown.
Tests used:
[1] = test system: resistant K. pneumoniae MXX1232 (MDR clinical isolate); test: Antibacterial activity, MIC, resistant K. pneumoniae MXX1232; type: cell-based, Klebsiella pneumoniae; details: resistant K. pneumoniae MMX1232, MDR clinical isolate; for MIC: Klebsiella pneumoniae, read-out: MIC MMX1232
[2] = test system: E. coli ELZ4000 (MDR clinical isolate); test: Antibacterial activity, MIC, MDR E. coli ELZ4000; type: cell-based, Escherichia coli; details: E. coli ELZ4000, MDR clinical isolate; for MIC: Escherichia coli, read-out: MIC ELZ4000
[3] = test system: Klebsiella pneumoniae (K. pneumoniae) 35657; test: Antibacterial activity, MIC, K. pneumoniae 35657; type: cell-based; details: for MIC: Klebsiella pneumoniae
[4] = test system: quinolone resistant E. coli LZ3111; test: Antibacterial activity, MIC, quinolone resistant E. coli LZ3111; type: cell-based, Escherichia coli; details: for MIC: Escherichia coli, read-out: MIC, LZ3111
From the text: (§1) The antibacterial activity from a microbroth dilution method may be presented as the minimum inhibitory concentration (MIC in […]). The MIC value is the lowest concentration of a drug which prevents macroscopically visible bacterial growth under test conditions.
Mutations in these regions are known to confer a high level resistance to the quinolone class of antibiotics.

[5] = test system: resistant A. baumannii MXX2240 (MDR clinical isolate); test: Antibacterial activity, MIC, resistant A. baumannii MXX2240; type: cell-based, Acinetobacter baumannii; details: resistant A. baumannii MMX2240, MDR clinical isolate; for MIC: Acinetobacter baumannii, read-out: MIC MMX2240
[6] = test system: Neisseria meningitidis (N. meningitidis) 13090; test: Antibacterial activity, MIC, N. meningitidis 13090; type: cell-based; details: N. meningitidis 13090; for MIC: Neisseria meningitidis, read-out: MIC 13090
[7] = test system: Pseudomonas aeruginosa (P. aeruginosa) 27853; test: Antibacterial activity, MIC, P. aeruginosa 27853; type: cell-based; details: P. aeruginosa 27853; for MIC: Pseudomonas aeruginosa, read-out: MIC 27853
From the text: as §1
Antibacterial activity of test compounds against the Gram-negative bacterium Pseudomonas aeruginosa (P. aeruginosa) 27853 is shown in Table 5.

[8] = test system: Gram-positive Staphylococcus aureus (S. aureus) 29213; test: Antibacterial activity, microbroth dilution MIC, S. aureus 29213; type: cell-based; details: S. aureus 29213, microbroth dilution; for MIC: Staphylococcus aureus, read-out: MIC, 29213
[9] = test system: Haemophilus influenzae (H. influenzae) 49247; test: Antibacterial activity, MIC, H. influenzae 49247; type: cell-based; details: H. influenzae 49247; for MIC: Haemophilus influenzae, read-out: MIC 49247
How it was run: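 Antibacterial activity against the Gram-negative organism Haemophilus influenzae strain 49247 was measured by microbroth dilution. The minimum inhibitory concentration (MIC) was taken as the lowest drug concentration that stopped bacterial growth from being visible to the naked eye under the test conditions.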

[10] = test system: Acinetobacter baumannii (A. baumannii) BAA747; test: Antibacterial activity, MIC, A. baumannii BAA747; type: cell-based; details: A. baumannii BAA747; for MIC: Acinetobacter baumannii, read-out: MIC BAA747
[11] = test system: Moraxella catarrhalis (M. catarrhalis) 25238; test: Antibacterial activity, MIC, M. catarrhalis 25238; type: cell-based; details: M. catarrhalis 25238; for MIC: Moraxella catarrhalis, read-out: MIC 25238
[12] = test system: control Gram-negative E. coli 25922 strain; test: Antibacterial activity, microbroth dilution MIC, E. coli 25922; type: cell-based, Escherichia coli; details: E. coli 25922, microbroth dilution; for MIC: Escherichia coli, read-out: MIC, 25922
[13] = test system: super sensitive Gram-negative Escherichia coli (E. coli) BAS849; test: Antibacterial activity, microbroth dilution MIC, E. coli BAS849; type: cell-based; details: E. coli BAS849, microbroth dilution; for MIC: Escherichia coli, read-out: MIC, BAS849
[14] = test system: E. coli ELZ4251 (MDR clinical isolate); test: Antibacterial activity, MIC, MDR E. coli ELZ4251; type: cell-based, Escherichia coli; details: E. coli ELZ4251, MDR clinical isolate; for MIC: Escherichia coli, read-out: MIC ELZ4251

Row | Compound | MIC [1] | MIC [2] | MIC [3] | MIC [4] | MIC [5] | MIC [6] | MIC [7] | MIC [8] | MIC [9] | MIC [10] | MIC [11] | MIC [12] | MIC [13] | MIC [14] | further results
1 | Cc1c(-c2ccc(N(C)C)cc2)[nH]c(=O)c(C(=O)O)c1O [Cpd 5, 6-[4-(dimethylamino)phenyl]-4-hydroxy-5-methyl-2-oxo-1,2-dihydropyridine-3-carboxylic acid] | 12.5 to 150 mg/L (≈ 43.4 to 520 µM) | 3.5 to 12.5 mg/L (≈ 12.1 to 43.4 µM) | 12.5 to 150 mg/L (≈ 43.4 to 520 µM) | 1 to 3.5 mg/L (≈ 3.47 to 12.1 µM) | < 1 mg/L | < 1 mg/L | 12.5 to 150 mg/L (≈ 43.4 to 520 µM) | 12.5 to 150 mg/L (≈ 43.4 to 520 µM) | 1 to 3.5 mg/L (≈ 3.47 to 12.1 µM) | 3.5 to 12.5 mg/L (≈ 12.1 to 43.4 µM) | 1 to 3.5 mg/L (≈ 3.47 to 12.1 µM) | 12.5 to 150 mg/L (≈ 43.4 to 520 µM) | < 1 mg/L | 1 to 3.5 mg/L (≈ 3.47 to 12.1 µM) | 
2 | CCc1c(-c2ccc(N(C)C)nc2)[nH]c(=O)c(C(=O)O)c1O [Cpd 87, 6-[6-(dimethylamino)pyridin-3-yl]-5-ethyl-4-hydroxy-2-oxo-1,2-dihydropyridine-3-carboxylic acid] | 12.5 to 150 mg/L (≈ 41.2 to 495 µM) | 1 to 3.5 mg/L (≈ 3.3 to 11.5 µM) | 12.5 to 150 mg/L (≈ 41.2 to 495 µM) | 1 to 3.5 mg/L (≈ 3.3 to 11.5 µM) | < 1 mg/L | < 1 mg/L | 12.5 to 150 mg/L (≈ 41.2 to 495 µM) | 12.5 to 150 mg/L (≈ 41.2 to 495 µM) | 1 to 3.5 mg/L (≈ 3.3 to 11.5 µM) | 3.5 to 12.5 mg/L (≈ 11.5 to 41.2 µM) | 1 to 3.5 mg/L (≈ 3.3 to 11.5 µM) | 12.5 to 150 mg/L (≈ 41.2 to 495 µM) | < 1 mg/L | 1 to 3.5 mg/L (≈ 3.3 to 11.5 µM) | 
3 | CCc1cc(C(=O)O)c(=O)[nH]c1-c1ccc(N(C)C)cc1 [Cpd 88, 6-[4-(dimethylamino)phenyl]-5-ethyl-2-oxo-1,2-dihydropyridine-3-carboxylic acid] | 12.5 to 150 mg/L (≈ 43.7 to 524 µM) | 12.5 to 150 mg/L (≈ 43.7 to 524 µM) | < 1 mg/L | 12.5 to 150 mg/L (≈ 43.7 to 524 µM) | 12.5 to 150 mg/L (≈ 43.7 to 524 µM) | < 1 mg/L | 3.5 to 12.5 mg/L (≈ 12.2 to 43.7 µM) | 3.5 to 12.5 mg/L (≈ 12.2 to 43.7 µM) | 3.5 to 12.5 mg/L (≈ 12.2 to 43.7 µM) | < 1 mg/L | < 1 mg/L | < 1 mg/L | < 1 mg/L | 12.5 to 150 mg/L (≈ 43.7 to 524 µM) | 
4 | CCc1c(-c2ccc(N3CCC(CNC)C3)cc2)[nH]c(=O)c(C(=O)O)c1O.Cl (stereo not shown) [Cpd 254, 5-ethyl-4-hydroxy-6-(4-{3-[(methylamino)methyl]pyrrolidin-1-yl}phenyl)-2-oxo-1,2-dihydropyridine-3-carboxylic acid hydrochloride] | 12.5 to 150 mg/L | 12.5 to 150 mg/L | 3.5 to 12.5 mg/L | 3.5 to 12.5 mg/L | 12.5 to 150 mg/L | 1 to 3.5 mg/L | 3.5 to 12.5 mg/L | 12.5 to 150 mg/L | 12.5 to 150 mg/L | 3.5 to 12.5 mg/L | 12.5 to 150 mg/L | 1 to 3.5 mg/L | < 1 mg/L | 3.5 to 12.5 mg/L | 
5 | CCc1c(-c2ccc(N3C[C@H]4CC[C@@H](NC)[C@H]4C3)cc2)[nH]c(=O)c(C(=O)O)c1O.Cl [Cpd 256, 5-ethyl-4-hydroxy-6-{4-[(3aR,4R,6aS)-4-(methylamino)hexahydrocyclopenta[c]pyrrol-2(1H)-yl]phenyl}-2-oxo-1,2-dihydropyridine-3-carboxylic acid hydrochloride] | 12.5 to 150 mg/L | 12.5 to 150 mg/L | 1 to 3.5 mg/L | 1 to 3.5 mg/L | 12.5 to 150 mg/L | < 1 mg/L | 12.5 to 150 mg/L | 3.5 to 12.5 mg/L | 3.5 to 12.5 mg/L | 12.5 to 150 mg/L | 1 to 3.5 mg/L | 1 to 3.5 mg/L | < 1 mg/L | 3.5 to 12.5 mg/L | 
6 | CCc1c(-c2ccc(N3CCC(N4CCCC4)C3)cc2)[nH]c(=O)c(C(=O)O)c1O.Cl (stereo not shown) [Cpd 257, 6-[4-(1,3′-bipyrrolidin-1′-yl)phenyl]-5-ethyl-4-hydroxy-2-oxo-1,2-dihydropyridine-3-carboxylic acid hydrochloride] | 12.5 to 150 mg/L | 3.5 to 12.5 mg/L | 1 to 3.5 mg/L | 3.5 to 12.5 mg/L | 12.5 to 150 mg/L | < 1 mg/L | 12.5 to 150 mg/L | 12.5 to 150 mg/L | 1 to 3.5 mg/L | 1 to 3.5 mg/L | 1 to 3.5 mg/L | < 1 mg/L | < 1 mg/L | 1 to 3.5 mg/L | 
7 | CCc1c(-c2ccc(N3C[C@H]4CCC[C@H](N)[C@H]4C3)cc2)[nH]c(=O)c(C(=O)O)c1O.Cl [Cpd 258, 6-{4-[(3aR,4S,7aS)-4-aminooctahydro-2H-isoindol-2-yl]phenyl}-5-ethyl-4-hydroxy-2-oxo-1,2-dihydropyridine-3-carboxylic acid hydrochloride] | 12.5 to 150 mg/L | 12.5 to 150 mg/L | 1 to 3.5 mg/L | < 1 mg/L | 3.5 to 12.5 mg/L | < 1 mg/L | 12.5 to 150 mg/L | 3.5 to 12.5 mg/L | 3.5 to 12.5 mg/L | 12.5 to 150 mg/L | 1 to 3.5 mg/L | 1 to 3.5 mg/L | < 1 mg/L | 3.5 to 12.5 mg/L | 
8 | Cc1c(-c2ccc(N3C[C@@H]4[C@@H](N)[C@@H]4C3)cc2)[nH]c(=O)c(C(=O)O)c1O.Cl [Cpd 259, 6-{4-[(1R,5S,6s)-6-amino-3-azabicyclo[3.1.0]hex-3-yl]phenyl}-4-hydroxy-5-methyl-2-oxo-1,2-dihydropyridine-3-carboxylic acid hydrochloride] |  |  |  |  |  |  |  |  |  |  |  |  |  |  | MIC MMX1232 [1]: * (an MIC value between >12.5 μg/mL and ≦150 μg/mL is indicated by a single star (*)); MIC ELZ4000 [2]: ** (an MIC value between >3.5 μg/mL and ≦12.5 μg/mL is indicated by two stars (**)); MIC 35657 [3]: *** (an MIC value between >1.0 μg/mL and ≦3.5 μg/mL is indicated by three stars (***)); MIC, LZ3111 ([4]; quinolone resistant E. coli LZ3111): *** (an MIC value between >1.0 μg/mL and ≦3.5 μg/mL is indicated by three stars (***)); MIC MMX2240 [5]: * (an MIC value between >12.5 μg/mL and ≦150 μg/mL is indicated by a single star (*)); MIC 13090 [6]: **** (an MIC value of ≦1.0 μg/mL is indicated by four stars (****)); MIC 27853 [7]: * (an MIC value between >12.5 μg/mL and ≦150 μg/mL is indicated by a single star (*)); MIC, 29213 [8]: * (an MIC value between >12.5 μg/mL and ≦150 μg/mL is indicated by a single star (*)); MIC 49247 [9]: *** (an MIC value between >1.0 μg/mL and ≦3.5 μg/mL is indicated by three stars (***)); MIC BAA747 [10]: ** (an MIC value between >3.5 μg/mL and ≦12.5 μg/mL is indicated by two stars (**)); MIC 25238 [11]: ** (an MIC value between >3.5 μg/mL and ≦12.5 μg/mL is indicated by two stars (**)); MIC, 25922 [12]: *** (an MIC value between >1.0 μg/mL and ≦3.5 μg/mL is indicated by three stars (***)); MIC, BAS849 [13]: **** (an MIC value of ≦1.0 μg/mL is indicated by four stars (****)); MIC ELZ4251 [14]: ** (an MIC value between >3.5 μg/mL and ≦12.5 μg/mL is indicated by two stars (**))

From patent US9650395B2, “Antibacterial compounds and methods for use” (PTC Therapeutics, Inc., priority 2011, dated 2017)
